Measured values: patent US11541084B2, “Method of promoting bone regrowth” (GENMONT BIOTECH INC., priority 2017, dated 2023)

Assays:
Type in all cases: in vivo, mice (ICR female)
[1] = test system: osteoclast related gene TRAP-5; assay: Real-time PCR of bone cDNA from OVX mice: TRAP-5 expression; details: bone RNA of OVX mice after 28 days of tube feed; compared with disease group (OVX+H2O)
Method: (§1) 8-week-old ICR female rats were purchased from BioLASCO Taiwan and ovariectomy was performed when they were 9 week-old. Mice were underwent anesthesia and were ovariectomized through back on both sides of the ovaries. All groups were given the test substance by means of tube feed at 4 days after surgery. The groups were divided into a sham operation group (control group, their abdominal cavity were cut but their ovaries were not removed); and 4 groups ovariectomized group (Ovariectomy; OVX). When the mice were sacrificed, the ovarian tissues were checked and confirmed whether the removal of ovarian was successful. The experimental results of the mice under failure operation were not used. […]
(§2) Extraction of tibial RNA: The left femur of the mice were removed, cut into small pieces with scissor, and an appropriate amount of liquid nitrogen was added to grind the bones quickly. […] The solution was placed at room temperature to react for 5 minutes, followed by centrifugalized and extracted the upper layer to new microcentrifuge tubes (eppendorf); 0.25 ml isopropanol was added thereto and the solution was placed at room temperature for 10 minutes and then centrifugalized; the supernatant was removed and the precipitate was washed with 0.5 ml 75% ethanol; after the precipitate was dried, 20-50 μl DEPC water was added to dissolve the precipitate and the RNA concentration was measured. […]

[2] = test system: ovariectomized (OVX) mice; assay: Bone tissue analysis by micro computed tomography of the femur in the osteoporosis mouse model; details: right femur, tube feed for 28 days, mean ±SD
Method: Experiment 1: Bone tissue analysis
(§3) (1) preparation of viable bacteria: Inoculating the Lactobacillus plantarum GMNL-662 from a frozen tube to 1 ml of MRS broth, and standing under 37° C. for aerobically incubating for 20 hours. The next day, adding 15 μl culture solution into 1.5 ml of MRS broth (1% secondary activation), and then standing under 37° C. for aerobically incubating for 20 hours. Estimating the bacteria number by using OD 600 to adjust the bacteria concentration to 8×10^7 CFU/ml.
as §3, with “(2)” for “(1)”, “dead” for “viable”, “Plantarum strain” for “plantarum”, “4.1×10^8” for “8×10^7”
8-week-old ICR female […] were purchased from BioLASCO Taiwan and ovariectomy was performed when they were 9 week-old. Mice were underwent anesthesia and were ovariectomized through back on both sides of the ovaries. All groups were given the test substance by means of tube feed at 4 days after surgery. The groups were divided into a sham operation group (control group, their abdominal cavity were cut but their ovaries were not removed); and 4 groups ovariectomized group (Ovariectomy; OVX). When the mice were sacrificed, the ovarian tissues were checked and confirmed whether the removal of ovarian was successful. The experimental results of the mice under failure operation were not used. […] The mice were given 0.1 ml per 10 grams of body weight and 4 times a week. The remaining two groups were fed with 0.2 ml of alive GMNL-662 (strain concentration is 8×10^7 cfu/ml; daily dose of the mouse is 1.6×10^7 cfu/mouse, the human dose is 4×10^9 cfu/60 kg adult), and 0.2 ml of dead GMNL-662 (strain concentration is 4.1×10^8 cfu/ml; daily dose of the mouse is 8.2×10^7 cells/mouse, the human dose is 2×10^10 cells/60 kg adult). The two groups were fed with tube one time every day, continued for 28 days, the mice were anesthetized and sacrificed for intraperitoneal cephalic vein sampling, and each femur was removed for analysis.
The backbone of the right femur far from the end was taken a computer tomography by a micro computed tomography (SkyScan 1076, Kontizh, Belgium, with resolution of 18 μm), and the trabecular bone volume ratio (i.e. bone volume/tissue volume) is analyzed by a software. The analyzed position was selected to include the area of 100 pieces under the growth plate excluding cortical bone. The bone mineral density analysis was applied to the same area. The obtained data in the experiments were analyzed with two-way analysis of variance, and executed T-test statistical analysis. All data were presented as mean ±SD. After comparisons, the abovementioned groups were analyzed statistically and noted by different marks to represent the statistically significant differences (* represents p<0.05; ** represents p<0.01).

cytokine TGF-β = assay: Real-time PCR of bone cDNA from OVX mice: TGF-β expression; details: bone RNA of OVX mice after 28 days of tube feed; compared with disease group (OVX+H2O)
Method: as §1, §2

osteocalcin gene = assay: Real-time PCR of bone cDNA from OVX mice: osteocalcin expression; details: bone RNA of OVX mice after 28 days of tube feed; compared with disease group (OVX+H2O)
Method: as §1, §2

[3] = * p<0.05, ** p<0.01, disease group OVX+H2O 0.344 ± 0.04, sham control 0.502 ± 0.04
[4] = * p<0.05, ** p<0.01, disease group OVX+H2O 30.9 ± 1.1, sham control 42.12 ± 2.4

Substance | expression of osteoclast related gene TRAP-5, FIG. 3 [1] | Femur bone mineral density (BMD, excluding cortical bone) [2, 3] | Femur bone mineral density (BMD, excluding cortical bone) ([2]; * p<0.05, ** p<0.01, disease group OVX+H2O 0.344 ± 0.04, sham control 0.502 ± 0.04, listed as alive GMNL-662) | Trabecular bone volume ratio (BV/TV, bone volume/tissue volume) [2, 4] | Trabecular bone volume ratio (BV/TV, bone volume/tissue volume) ([2]; * p<0.05, ** p<0.01, disease group OVX+H2O 30.9 ± 1.1, sham control 42.12 ± 2.4, listed as alive GMNL-662) | expression of cytokine TGF-β (relative to GAPDH), FIG. 1 (cytokine TGF-β) | expression of osteocalcin gene, FIG. 2 (osteocalcin gene) | Femur bone mineral density (BMD, excluding cortical bone) ([2]; * p<0.05, ** p<0.01, disease group OVX+H2O 0.344 ± 0.04, sham control 0.502 ± 0.04, listed as dead GMNL-662) | Trabecular bone volume ratio (BV/TV, bone volume/tissue volume) ([2]; * p<0.05, ** p<0.01, disease group OVX+H2O 30.9 ± 1.1, sham control 42.12 ± 2.4, listed as dead GMNL-662)
Lactobacillus plantarum strain GMNL-662 [GMNL-662 alive] | significantly lower | 0.488 ± 0.02** g/cm^3 | significantly higher | 36.92 ± 1.7** % | higher than the disease group | significant increased expression | higher than the disease group | – | –
Lactobacillus plantarum strain GMNL-662 [GMNL-662 dead] | significantly lower | 0.474 ± 0.01** g/cm^3 | – | 36.8 ± 1.2** % | – | significant increased expression | higher than the disease group | significantly higher | higher than the disease group
